Data reported in patent US10689377B2 (Mirati Therapeutics, Inc., priority 2017, dated 2020).

These molecules were tested against KRas G12C (Homo sapiens, UniProt P01116, G12C) (assay: Cellular inhibition of KRas G12C measured by Phospho-ERK in NCI-H358 cells). Conditions: pERK(Thr202/Tyr204) normalized with GAPDH, NCI-H358 cells, 3 hours; read-out: IC50.
Format: cell-based
Summary of the method: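 NCI-H358 cells treated 3 h with compound (0.5% DMSO final), then fixed and methanol-permeabilised. In-cell immunofluorescence measured pERK(Thr202/Tyr204) normalised to GAPDH as percent of DMSO control. IC50 from a 4-parameter dose-response fit.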

Sequence of KRas G12C (P01116 1-188 isoform P01116-2 G12C): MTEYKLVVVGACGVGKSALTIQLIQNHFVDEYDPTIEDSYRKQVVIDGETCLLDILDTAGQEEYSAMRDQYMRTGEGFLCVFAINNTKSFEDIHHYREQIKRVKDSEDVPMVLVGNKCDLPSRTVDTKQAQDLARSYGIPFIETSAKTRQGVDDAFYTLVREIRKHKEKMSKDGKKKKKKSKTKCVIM

Row | IC50 [µM] | Structure (SMILES)
1 | > 1 | C=CC(=O)N1CCN(c2nc(OCC3CCN(CC(=O)N(C)C)C3)nc3c2CCN(c2cc(O)cc4ccccc24)C3)CC1 (stereo not shown) [Example 140, 2-[3-[[7-(3-hydroxy-1-naphthyl)-4-(4-prop-2-enoylpiperazin-1-yl)-6,8-dihydro-5H-pyrido[3,4-d]pyrimidin-2-yl]oxymethyl]pyrrolidin-1-yl]-N,N-dimethyl-acetamide]
2 | 0.0001 to 1 | C=CC(=O)N1CCN(c2nc(OCCN3CCC(C)CC3)nc3c2CCN(c2cc(O)cc4ccccc24)C3)CC1 [Example 92, 1-(4-(7-(3-hydroxynaphthalen-1-yl)-2-(2-(4-methylpiperidin-1-yl)ethoxy)-5,6,7,8-tetrahydropyrido[3,4-d]pyrimidin-4-yl)piperazin-1-yl)prop-2-en-1-one]
3 | 0.0001 to 1 | C=CC(=O)N1CCN(c2nc(OC[C@H]3CN(C)C(C)(C)CO3)nc3c2CCN(c2cccc4ccccc24)C3)C[C@@H]1CC#N [Example 452, 2-((S)-1-Acryloyl-4-(7-(naphthalen-1-yl)-2-(((R)-4,5,5-trimethylmorpholin-2-yl)methoxy)-5,6,7,8-tetrahydropyrido[3,4-d]pyrimidin-4-yl)piperazin-2-yl)acetonitrile]
4 | 0.0001 to 1 | C=CC(=O)N1CCN(c2nc(OC[C@@H]3CCCN3C)nc3c2CCN(c2cccc(C)c2C)C3)C[C@@H]1CC#N [Example 394, 2-((S)-1-acryloyl-4-(7-(2,3-dimethylphenyl)-2-(((S)-1-methylpyrrolidin-2-yl)methoxy)-5,6,7,8-tetrahydropyrido[3,4-d]pyrimidin-4-yl)piperazin-2-yl)acetonitrile]
5 | 0.0001 to 1 | C=CC(=O)N1CCN(c2nc(OC[C@@H]3CCCN3C)nc3c2CCN(c2cccc(Cl)c2C)C3)C[C@@H]1CC#N [Example 420, 2-((S)-1-acryloyl-4-(7-(3-chloro-2-methylphenyl)-2-(((S)-1-methylpyrrolidin-2-yl)methoxy)-5,6,7,8-tetrahydropyrido[3,4-d]pyrimidin-4-yl)piperazin-2-yl)acetonitrile]
6 | > 1 | C=CC(=O)N1CCN(c2nc(OC(C)CN(C)C)nc3c2CCN(c2cccc4ccccc24)C3)CC1 (stereo not shown) [Example 24, 1-(4-(2-((1-(dimethylamino)propan-2-yl)oxy)-7-(naphthalen-1-yl)-5,6,7,8-tetrahydropyrido[3,4-d]pyrimidin-4-yl)piperazin-1-yl)prop-2-en-1-one]
7 | > 1 | C=CC(=O)N1CCN(c2nc(OC3CCN(C4CC4)CC3)nc3c2CCN(c2cc(O)cc4ccccc24)C3)CC1 [Example 100, 1-(4-(2-((1-cyclopropylpiperidin-4-yl)oxy)-7-(3-hydroxynaphthalen-1-yl)-5,6,7,8-tetrahydropyrido[3,4-d]pyrimidin-4-yl)piperazin-1-yl)prop-2-en-1-one]
8 | 0.0001 to 1 | C=CC(=O)N1CCN(c2nc(OC[C@@H]3CCCN3C)nc3c2CCN(c2ccccc2F)C3)CC1CC#N (stereo partly drawn) [Example 227, 2-(1-acryloyl-4-(7-(2-fluorophenyl)-2-(((S)-1-methylpyrrolidin-2-yl)methoxy)-5,6,7,8-tetrahydropyrido[3,4-d]pyrimidin-4-yl)piperazin-2-yl)acetonitrile]
9 | > 1 | C=CC(=O)N1CCN(c2nc(N3CC(N(C)C)C3)nc3c2CCN(c2cc(O)cc4ccccc24)C3)CC1 [Example 128, 1-(4-(2-(3-(dimethylamino)azetidin-1-yl)-7-(3-hydroxynaphthalen-1-yl)-5,6,7,8-tetrahydropyrido[3,4-d]pyrimidin-4-yl)piperazin-1-yl)prop-2-en-1-one]
10 | 0.0001 to 1 | C=CC(=O)N1CCN(c2nc(OC[C@H]3C[C@@H](O)CN3C)nc3c2CCN(c2cccc(F)c2C(F)(F)F)C3)CC1CC#N (stereo partly drawn) [Example 416, 2-(1-acryloyl-4-(7-(3-fluoro-2-(trifluoromethyl)phenyl)-2-(((2R,4R)-4-hydroxy-1-methylpyrrolidin-2-yl)methoxy)-5,6,7,8-tetrahydropyrido[3,4-d]pyrimidin-4-yl)piperazin-2-yl)acetonitrile]
11 | > 1 | C=CC(=O)N1CCN(c2nc(O[C@H](C)CN(C)C)nc3c2CCN(c2cc(O)ccc2OC)C3)CC1 [Example 94, (R)-1-(4-(2-((1-(dimethylamino)propan-2-yl)oxy)-7-(5-hydroxy-2-methoxyphenyl)-5,6,7,8-tetrahydropyrido[3,4-d]pyrimidin-4-yl)piperazin-1-yl)prop-2-en-1-one]
12 | > 1 | C=CC(=O)N1CCN(c2nc(O[C@H](C)CN(C)C)nc3c2CCN(c2cc(O)c(Cl)c4ccccc24)C3)CC1 [Example 125, (R)-1-(4-(7-(4-chloro-3-hydroxynaphthalen-1-yl)-2-((1-(dimethylamino)propan-2-yl)oxy)-5,6,7,8-tetrahydropyrido[3,4-d]pyrimidin-4-yl)piperazin-1-yl)prop-2-en-1-one]
13 | > 1 | C=CC(=O)N1CCN(c2nc(OCCCN(C)C)nc3c2CCN(C(C)c2ccccc2)C3)CC1 (stereo not shown) [Example 25, 1-(4-(2-(3-(dimethylamino)propoxy)-7-(1-phenylethyl)-5,6,7,8-tetrahydropyrido[3,4-d]pyrimidin-4-yl)piperazin-1-yl)prop-2-en-1-one]
14 | 0.0001 to 1 | C=CC(=O)N1CCN(c2nc(OCCCN3C[C@H]4C[C@@H]3CO4)nc3c2CCN(c2ccccc2C(F)(F)F)C3)CC1CC#N (stereo partly drawn) [Example 297, 2-[4-[2-[3-[(1R,4R)-2-oxa-5-azabicyclo[2.2.1]heptan-5-yl]propoxy]-7-[2-(trifluoromethyl)phenyl]-6,8-dihydro-5H-pyrido[3,4-d]pyrimidin-4-yl]-1-prop-2-enoyl-piperazin-2-yl]acetonitrile]
15 | > 1 | C=CC(=O)N1CCN(c2nc(OCCCN3C[C@@H]4C[C@H]3CO4)nc3c2CCN(c2c(C)ccc4[nH]ncc24)C3)CC1 [Example 181, 1-(4-(2-(3-((1S,4S)-2-oxa-5-azabicyclo[2.2.1]heptan-5-yl)propoxy)-7-(5-methyl-1H-indazol-4-yl)-5,6,7,8-tetrahydropyrido[3,4-d]pyrimidin-4-yl)piperazin-1-yl)prop-2-en-1-one]
16 | 0.0001 to 1 | C=CC(=O)N1CCN(c2nc(OC[C@@H]3CCCN3CC)nc3c2CCN(c2ccc(F)c4ccccc24)C3)CC1CC#N (stereo partly drawn) [Example 322, 2-(1-acryloyl-4-(2-(((S)-1-ethylpyrrolidin-2-yl)methoxy)-7-(4-fluoronaphthalen-1-yl)-5,6,7,8-tetrahydropyrido[3,4-d]pyrimidin-4-yl)piperazin-2-yl)acetonitrile]
17 | > 1 | C=CC(=O)N1CCN(c2nc(OCC3CN(C)CCN3C)nc3c2CCN(c2cc(O)cc4ccccc24)C3)CC1 (stereo not shown) [Example 219, 1-(4-(2-((1,4-dimethylpiperazin-2-yl)methoxy)-7-(3-hydroxynaphthalen-1-yl)-5,6,7,8-tetrahydropyrido[3,4-d]pyrimidin-4-yl)piperazin-1-yl)prop-2-en-1-one]
18 | 0.0001 to 1 | Cc1cccc2cccc(N3CCc4c(nc(OC[C@@H]5CCCN5C)nc4N4CCN(C(=O)/C=C/c5ccncc5)[C@@H](CC#N)C4)C3)c12 [Example 526, 2-((S)-4-(7-(8-methylnaphthalen-1-yl)-2-(((S)-1-methylpyrrolidin-2-yl)methoxy)-5,6,7,8-tetrahydropyrido[3,4-d]pyrimidin-4-yl)-1-((E)-3-(pyridin-4-yl)acryloyl)piperazin-2-yl)acetonitrile]
19 | > 1 | C=CC(=O)N1CCN(c2nc(OC[C@@H]3CCCN3C)nc3c2CCN(c2cnccc2C#N)C3)C[C@@H]1CC#N [Example 305, 3-(4-((S)-4-acryloyl-3-(cyanomethyl)piperazin-1-yl)-2-(((S)-1-methylpyrrolidin-2-yl)methoxy)-5,6-dihydropyrido[3,4-d]pyrimidin-7(8H)-yl)isonicotinonitrile]
20 | > 1 | C=CC(=O)N1CCN(c2nc(OC[C@@H]3CCCN3C)nc3c2CCN(c2cccc(F)c2F)C3)C[C@@H]1CC#N [Example 407, 2-((S)-1-acryloyl-4-(7-(2,3-difluorophenyl)-2-(((S)-1-methylpyrrolidin-2-yl)methoxy)-5,6,7,8-tetrahydropyrido[3,4-d]pyrimidin-4-yl)piperazin-2-yl)acetonitrile]
21 | 0.0001 to 1 | C=CC(=O)N1CCN(c2nc(OC[C@@H]3CCCN3CC(=O)N(C)C)nc3c2CCN(c2cccc4ccccc24)C3)CC1CC#N (stereo partly drawn) [Example 398, 2-((2S)-2-(((4-(4-acryloyl-3-(cyanomethyl)piperazin-1-yl)-7-(naphthalen-1-yl)-5,6,7,8-tetrahydropyrido[3,4-d]pyrimidin-2-yl)oxy)methyl)pyrrolidin-1-yl)-N,N-dimethylacetamide]
22 | > 1 | C=CS(=O)(=O)N1CCN(c2nc(OC[C@@H]3CCCN3C)nc3c2CCN(c2cccc(C)c2C)C3)CC1 [Example 343, 7-(2,3-dimethylphenyl)-2-[[(2S)-methylpyrrolidin-2-yl]methoxy]-4-(4-vinylsulfonylpiperazin-1-yl)-6,8-dihydro-5H-pyrido[3,4-d]pyrimidine]
23 | 0.0001 to 1 | C=C(F)C(=O)N1CCN(c2nc(OC[C@@H]3CCCN3C)nc3c2CCN(c2c(C)c(C)cc4[nH]ncc24)C3)C[C@@H]1CC#N [Example 604, 2-[(2S)-4-[7-(5,6-dimethyl-1H-indazol-4-yl)-2-[[(2S)-1-methylpyrrolidin-2-yl]methoxy]-6,8-dihydro-5H-pyrido[3,4-d]pyrimidin-4-yl]-1-(2-fluoroprop-2-enoyl)piperazin-2-yl]acetonitrile]
24 | 0.0001 to 1 | C=CC(=O)N1CCN(c2nc(OCCN(CC)CC)nc3c2CCN(c2ccccc2C(F)(F)F)C3)CC1CC#N (stereo not shown) [Example 284, 2-(1-acryloyl-4-(2-(2-(diethylamino)ethoxy)-7-(2-(trifluoromethyl)phenyl)-5,6,7,8-tetrahydropyrido[3,4-d]pyrimidin-4-yl)piperazin-2-yl)acetonitrile]
25 | 0.0001 to 1 | C=CC(=O)N1CCN(c2nc(OC[C@@H]3CCCN3C)nc3c2CCN(c2cccc4cccc(C)c24)C3)CC1CC#N (stereo partly drawn) [Example 309, 2-(1-acryloyl-4-(7-(8-methylnaphthalen-1-yl)-2-(((S)-1-methylpyrrolidin-2-yl)methoxy)-5,6,7,8-tetrahydropyrido[3,4-d]pyrimidin-4-yl)piperazin-2-yl)acetonitrile]
